From the supplement of paper PMC9912026

Tested on: A375_Cra_F7_5/13
Experiment: pERK immunofluorescence, normalised; higher = more ERK phosphorylation
Settings: vemurafenib 0 µM, drug treatment time 24 h
Experimental: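 A375 or A375 CRISPRa-EGFR (A375_Cra_F7_5/13) cells were adapted for 24 h to a cobimetinib dose series, with or without 1 uM vemurafenib, then stimulated with EGF (100 ng/mL) or mock medium and fixed at the indicated times. pERK was measured by immunofluorescence as the population mean normalised to baseline, with the SD of technical replicates (n=2).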

O=C(c1ccc(F)c(F)c1Nc1ccc(I)cc1F)N1CC(O)([C@@H]2CCCCN2)C1 [cobimetinib]
pERK immunofluorescence
Settings | cobimetinib 31.62 pM | cobimetinib 0.0001 µM | cobimetinib 0.000316228 µM | cobimetinib 0.001 µM | cobimetinib 0.003162278 µM | cobimetinib 0.01 µM | cobimetinib 0.031622777 µM | cobimetinib 0.1 µM | cobimetinib 0.316227766 µM | cobimetinib 1 µM
EGF 0 ng/mL, time after EGF/mock 0.083 h | 0.992 | 1.01 | 0.951 | 0.771 | 0.467 | 0.234 | 0.142 | 0.111 | 0.0968 | 0.0989
EGF 0 ng/mL, time after EGF/mock 0.5 h | 0.968 | 0.9446 | 0.859 | 0.742 | 0.422 | 0.214 | 0.177 | 0.143 | 0.0997 | 0.09394
EGF 0 ng/mL, time after EGF/mock 2 h | 1.05 | 1.018 | 1.03 | 0.8492 | 0.55 | 0.217 | 0.121 | 0.107 | 0.1 | 0.099798
EGF 0 ng/mL, time after EGF/mock 8 h | 0.974 | 0.999 | 0.9603 | 0.801 | 0.47 | 0.189 | 0.102 | 0.086 | 0.082 | 0.082503
EGF 0 ng/mL, time after EGF/mock 24 h | 1.07 | 1.053 | 1.04 | 0.927 | 0.531 | 0.189 | 0.116 | 0.1 | 0.08927 | 0.0841
EGF 100 ng/mL, time after EGF/mock 0.083 h | 1.47 | 1.44 | 1.43 | 1.42 | 1.37 | 1.27 | 1.15 | 0.883 | 0.31 | 0.111
EGF 100 ng/mL, time after EGF/mock 0.5 h | 1.35 | 1.34 | 1.31 | 1.36 | 1.32 | 1.26 | 1.15 | 1.02 | 0.675 | 0.179
EGF 100 ng/mL, time after EGF/mock 2 h | 1.21 | 1.194 | 1.14 | 1.08 | 0.926 | 0.7446 | 0.65813 | 0.527 | 0.341 | 0.137
EGF 100 ng/mL, time after EGF/mock 8 h | 0.99 | 0.999 | 0.997 | 0.8777 | 0.735 | 0.5778 | 0.475 | 0.3675 | 0.221 | 0.1
EGF 100 ng/mL, time after EGF/mock 24 h | 1.07 | 1.08 | 1.084 | 1.04 | 0.902 | 0.689 | 0.5819 | 0.465 | 0.273 | 0.107
